Like-named read-outs stand apart in the source and are kept apart here.
Tests used:
IAV A/PR/8/34 (H1N1) = type: in vivo; settings: mice, IAV A/PR/8/34 (H1N1) 40 or 60% lethal doses, pepducin p4pal-10 10 μg
IAV A/PR/8/34 = type: in vivo, mice; settings: lethal dose

## N-palmitoyl-SGRRYGHALR-NH2 (HELM PEPTIDE1{[CCCCCCCCCCCCCCCC(=O)[*:2]].S.G.R.R.Y.G.H.A.L.R.[am]}$$$$V2.0; SMILES CCCCCCCCCCCCCCCC(=O)N[C@@H](CO)C(=O)NCC(=O)N[C@@H](CCCNC(=N)N)C(=O)N[C@@H](CCCNC(=N)N)C(=O)N[C@@H](Cc1ccc(O)cc1)C(=O)NCC(=O)N[C@@H](Cc1c[nH]cn1)C(=O)N[C@@H](C)C(=O)N[C@@H](CC(C)C)C(=O)N[C@@H](CCCNC(=N)N)C(N)=O) [pepducin p4pal-10]
IAV A/PR/8/34 (H1N1)
  death: protected mice from weight loss and death
  weight loss: protected mice from weight loss
IAV A/PR/8/34; day 3 post-inoculation, ELISA
  IL1-β level in BAL: not at day 3
  IL-6 level in BAL: not at day 3
  MIP-2 level in BAL: not at day 3
IAV A/PR/8/34; day 6 post-inoculation
  level of total proteins in BAL: significantly reduced
IAV A/PR/8/34; day 6 post-inoculation, ELISA
  IFN-γ level in BAL: significantly reduced
  IL1-β level in BAL: significantly reduced
  IL-6 level in BAL: significantly reduced
  MIP-2 level in BAL: significantly reduced
IAV A/PR/8/34; treated vs not treated
  KC level in BAL: similar
  RANTES level in BAL: similar

From patent US20160095897A1 (priority 2013, published 2016)
